Earlier results, collected in patent US10773080B2, “External trigeminal nerve stimulation for the acute non-invasive treatment of migraine attacks” (Cefaly Technology Sprl, priority 2017, dated 2020).

Legend:
migraine [1] = conditions: literature data; for Pain freedom at 2 h: percentage of patients
migraine [2] = conditions: in vivo

SMILES | Nausea freedom at 2 h (migraine [1]; irrespective of MBS) | Phonophobia freedom at 2 h (migraine [1]; irrespective of MBS) | Photophobia freedom at 2 h (migraine [1]; irrespective of MBS) | Vomiting freedom at 2 h (migraine [1]; irrespective of MBS) | At least one treatment-emergent adverse effect (migraine [1]) | Pain relief at 2 h (migraine [1]) | Use of rescue medication between 2 h and 24 h (migraine [1]) | Pain freedom at 2 h (migraine [1]) | Sustained pain freedom at 24 h (migraine [1]) | Mean pain score reductions at two hours (migraine [2]) | Reduction in mean pain VAS scores at one hour (migraine [2])
CN1CCC(C(=O)c2cccc(NC(=O)c3c(F)cc(F)cc3F)n2)CC1 [[B], Lasmiditan] | ~26% | ~30% | ~38% | ~5% | 84% | 65% | 42% | 28% |  |  | 
C[C@@H]1[C@H](c2ccccc2)C[C@H](NC(=O)c2cnc3c(c2)C[C@@]2(C3)C(=O)Nc3ncccc32)C(=O)N1CC(F)(F)F [[F], Ubrogepant] | 70.6% | 60.8% | 54.9% |  | 29.4% | 58.8% |  | 25.5% | 21.6% |  | 
CNS(=O)(=O)Cc1ccc2[nH]cc(CCN(C)C)c2c1 [sumatriptan] |  |  |  |  |  |  |  |  |  | 40.0% | 17.1%
O=C(O)Cc1ccccc1Nc1c(Cl)cccc1Cl [diclofenac] |  |  |  |  |  |  |  |  |  | 50.5% | 26.8%
